Like-named read-outs stand apart in the source and are kept apart here.
Experiments:
[1] = target: T1, hFSP1 (human FSP1) (Homo sapiens, UniProt Q9BRQ8); assay: resazurin reduction, fluorescence; assay type: biochemical
T1 construct: gene AIFM2; recombinant from E. coli BL21, Ni-NTA purified (His tag implied); HA-tagged in Pfa1 cells for cell assays; cDNA carries C>T:1008 (probably silent)
T1 sequence (Q9BRQ8 2-373): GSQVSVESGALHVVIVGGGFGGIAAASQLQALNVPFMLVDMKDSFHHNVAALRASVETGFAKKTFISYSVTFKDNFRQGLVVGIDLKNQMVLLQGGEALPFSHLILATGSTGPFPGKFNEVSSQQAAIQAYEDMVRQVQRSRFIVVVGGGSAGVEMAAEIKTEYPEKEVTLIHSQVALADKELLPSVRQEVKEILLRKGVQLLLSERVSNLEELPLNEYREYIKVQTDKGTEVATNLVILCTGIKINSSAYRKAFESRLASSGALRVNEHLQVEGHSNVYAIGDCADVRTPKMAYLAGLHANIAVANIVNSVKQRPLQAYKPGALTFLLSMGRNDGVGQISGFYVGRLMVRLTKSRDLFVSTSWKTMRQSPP

[2] = target: T2, mFsp1 (mouse FSP1) (Mus musculus, UniProt Q8BUE4); assay: resazurin reduction, fluorescence; assay type: biochemical
T2 construct: gene Aifm2; recombinant from E. coli BL21, Ni-NTA purified; HA-tagged, codon-optimized in Pfa1 cells for cell assays
T2 sequence (Q8BUE4 2-373): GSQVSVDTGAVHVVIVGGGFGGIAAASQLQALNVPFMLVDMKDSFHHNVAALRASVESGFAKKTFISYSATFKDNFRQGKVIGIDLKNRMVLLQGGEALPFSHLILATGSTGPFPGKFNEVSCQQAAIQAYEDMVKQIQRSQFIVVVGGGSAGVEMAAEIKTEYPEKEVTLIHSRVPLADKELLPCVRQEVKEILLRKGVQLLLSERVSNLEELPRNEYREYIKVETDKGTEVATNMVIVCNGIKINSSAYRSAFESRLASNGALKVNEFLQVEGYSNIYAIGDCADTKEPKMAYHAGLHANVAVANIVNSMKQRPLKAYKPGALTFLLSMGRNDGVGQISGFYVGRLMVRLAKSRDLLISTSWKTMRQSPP
Excerpt: resazurin reduction, fluorescence on mFsp1 (mouse FSP1) | both hFSP1 and mFsp1 enzyme activity are equally sensitive to viFSP1

| IC50 [2] [nM] | IC50 ([1]; read-out: IC50) [nM] | SMILES | IC50 ([1]; […] NADH, […] resazurin, TBS, […] C) |
| --- | --- | --- | --- |
| – | – | Cc1ccc(-c2c(C#N)c(N)n3c(nc4ccccc43)c2C#N)cc1 [iFSP1] | dose–response curves for the effect of iFSP1 on the activity of FSP1 mutants |
| 83 | 34 | COc1ccc(N2CC(=O)C(c3nc(C)cs3)=C2N)c(OC)c1 [viFSP1] | – |

Reference: article PMC10643123, “Integrated chemical and genetic screens unveil FSP1 mechanisms of ferroptosis regulation” (Nature Structural & Molecular Biology, 2023)
